The text below walks through data of patent publication US6617350B2, “Inhibitors of aspartyl protease” (priority 1999, dated 2003).

One assay concerns HIV-1 (strain IIIB). The assay is described as follows: microbe, parasite or virus in culture. The class given is cell-based. The following applies: read-out: IC50.
The next assay concerns the target HIV-1 protease (Human immunodeficiency virus type 1 group M subtype B, UniProt P04585). The assay is described as follows: biochemical.
Where [1] appears, read: Human immunodeficiency virus 1, IIIB, MT4, Table 12, anti-viral potency in MT-4 cells.
The mark [2] stands for this setting: Table 12, HIV-1 protease, read-out: Ki.

pIC50, pKi: −log10 of the molar value. Read-outs that look alike come from different tables or passages of the source. Where only a bound is given, the exact number is not on record here.

Regarding `COc1ccc(S(=O)(=O)N(C[C@@H](O)[C@H](Cc2ccccc2)NC(=O)OC2COCOC2)CC(C)(C)CCC(N)=O)cc1` [Compound 273, {(1S,2R)-1-Benzyl-3-[(4-carboxamide-2,2-dimethyl-butyl)-(4-methoxy-benzenesulfonyl)-amino]-2-hydroxy-propyl}-carbamic acid [1,3]dioxan-5-yl ester], the pIC50 in the assay on HIV-1 (strain IIIB) (setting [1]) is 6.30 to 7.00. The pKi at HIV-1 protease (setting [2]) is > 9.00.
For `COC(=O)NCCC(C)(C)CN(CC(O)C(Cc1ccccc1)NC(=O)OC1COC2OCCC12)S(=O)(=O)c1ccc(OC)cc1` [Compound 218, (3R,3aS,6aR)hexahydrofuro[2,3-b]furan-3-yl N-((1S,2R)-1-benzyl-2-hydroxy-3-4-[(methoxycarbonyl)amino]-2,2-dimethylbutyl[(4-methoxyphenyl)sulfonyl]aminopropyl)carbamate and (3S,3aR,6aS)hexahydrofuro[2,3-b]furan-3-yl N-((1S,2R)-1-benzyl-2-hydroxy-3-4-[(methoxycarbonyl)amino]-2,2-dimethylbutyl[(4-methoxyphenyl)sulfonyl]aminopropyl)carbamate] the same measures were ≥ 7.00 and > 9.00.
For `CC(C)(CCCCN)CN(CC(O)C(Cc1ccccc1)NC(=O)OC1COC2OCCC12)S(=O)(=O)c1ccc2c(c1)OCO2` [Compound 244, (3R,3aS,6aR)hexahydrofuro[2,3-b]furan-3-yl N-(1S,2R)-3-[(6-amino-2,2-dimethylhexyl)(1,3-benzodioxol-5-ylsulfonyl)amino]-1-benzyl-2-hydroxypropylcarbamate] the same measures were 6.30 to 7.00 and > 9.00.
The like results for `COc1ccc(S(=O)(=O)N(CC(O)[C@H](Cc2ccccc2)NC(=O)OC2COC3OCCC23)CC(C)(C)CCC(C)=NO)cc1` (stereo partly drawn) [Compound 227, (3R,3aS,6aR)-Hexahydrofuro[2,3-b]furan-3-yl N-((1S,2R)-1-benzyl-3-(2,2-dimethyl-5-hydroxyiminohexyl)[(4-methoxyphenyl)sulfonyl]amino-2-hydroxypropyl)carbamate] were, in that order, ≥ 7.00 and > 9.00.
Consider `CC(C)(CCCCN)CN(CC(O)C(Cc1ccccc1)NC(=O)OC1COC2OCCC12)S(=O)(=O)c1ccc2c(c1)OCCO2` [Compound 245, (3R,3aS,6aR)hexahydrofuro[2,3-b]furan-3-yl N-(1S,2R)-3-[(6-amino-2,2-dimethylhexyl)(2,3-dihydro-1,4-benzodioxin-6-ylsulfonyl)amino]-1-benzyl-2-hydroxypropylcarbamate], for which, in the assay with HIV-1 (strain IIIB) (setting [1]), the pIC50 is 6.30 to 7.00. Besides, the pKi on HIV-1 protease (setting [2]) is > 9.00.
For `CC(C)(CCC#N)CN(CC(O)[C@H](Cc1ccccc1)NC(=O)OC1COC2OCCC12)S(=O)(=O)c1cccc(N)c1` (stereo partly drawn) [Compound 10, (3S,3aR,6aS)-Hexahydrofuro[2,3-b]furan-3-yl N-((1S,2R)-3-[(3-aminophenyl)sulfonyl](4-cyano-2,2-dimethylbutyl)-amino-1-benzyl-2-hydroxypropyl)carbamate] the same measures were ≥ 7.00 and > 9.00.
`CNC(=O)OCCCC(C)(C)CN(CC(O)[C@H](Cc1ccccc1)NC(=O)OC1COC2OCCC12)S(=O)(=O)c1ccc2c(c1)OCO2` (stereo partly drawn) [Compound 272, (3R,3aS,6aR)-Hexahydrofuro[2,3-b]furan-3-yl N-((1S,2R)-1-benzyl-3-[2,2-dimethyl-5-(N′-methylcarbamoyloxypentyl)][(3,4-methylenedioxyphenyl)sulfonyl]amino-2-hydroxypropyl)carbamate]: the pIC50 in the assay on HIV-1 (strain IIIB) (setting [1]) was ≥ 7.00. Moreover, on HIV-1 protease, the pKi is > 9.00.
In the case of `CNc1cccc(S(=O)(=O)N(CC(O)C(Cc2ccccc2)NC(=O)OC2COC3OCCC23)CC(C)(C)CCCNS(C)(=O)=O)c1` [Compound 270, (3R,3aS,6aR)hexahydrofuro[2,3-b]furan-3-yl N-[(1S,2R)-1-benzyl-3-((5-[(methylsulfonyl]amino-2,2-dimethylpentyl)[3-(methylamino)phenyl]sulfonylamino)-2-hydroxypropyl]carbamate], the pIC50 in the assay with HIV-1 (strain IIIB) (setting [1]) was ≥ 7.00. The pKi on HIV-1 protease (setting [2]) is > 9.00.
For `CC(C)(CCCCNS(C)(=O)=O)CN(C[C@@H](O)[C@H](Cc1ccccc1)NC(=O)O[C@H]1CO[C@H]2OCC[C@H]21)S(=O)(=O)c1ccc2c(c1)OCO2` [Compound 255, (3R,3aS,6aR)hexahydrofuro[2,3-b]furan-3-yl N-[(1S,2R)-3-((1,3-benzodioxol-5-ylsulfonyl)2,2-dimethyl-6-[(methylsulfonyl)amino]hexylamino)-1-benzyl-2-hydroxypropyl]carbamate], the pIC50 in the assay on HIV-1 (strain IIIB) (setting [1]) is ≥ 7.00. For the same molecule, the pKi at HIV-1 protease (setting [2]) is > 9.00.
With `COc1ccc(S(=O)(=O)N(CCC#N)C[C@@H](O)[C@H](Cc2ccccc2)NC(=O)O[C@H]2CO[C@H]3OCC[C@H]32)cc1` [Compound 124, {(1S,2R)-3-[(4-methoxybenzenesulfonyl)-(2-cyanoethyl)-amino]-1-benzyl-2-hydroxy-propyl}-carbamic acid (3R,3aS,6aR)hexahydro-furo[2,3-b]furan-3-yl ester], the pIC50 with HIV-1 (strain IIIB) (setting [1]) was ≥ 7.00. For the same molecule, the pKi at HIV-1 protease (setting [2]) is > 9.00.
Consider `CN(C)C(=O)NCCCCC(C)(C)CN(CC(O)C(Cc1ccccc1)NC(=O)OC1COC2OCCC12)S(=O)(=O)c1ccc2c(c1)OCO2` [Compound 249, (3R,3aS,6aR)hexahydrofuro[2,3-b]furan-3-yl N-(1S,2R)-3-[(1,3-benzodioxol-5-ylsulfonyl)(6-[(dimethylamino)carbonyl]amino-2,2-dimethylhexyl)amino]-1-benzyl-2-hydroxypropylcarbamate], for which the pIC50 with HIV-1 (strain IIIB) (setting [1]) is ≥ 7.00. The pKi at HIV-1 protease (setting [2]) was > 9.00.
For `CC(C)(CCC#N)CN(C[C@@H](O)[C@H](Cc1ccccc1)NC(=O)O[C@H]1CO[C@H]2OCC[C@H]21)S(=O)(=O)c1ccc2c(c1)OCO2` [Compound 25, {(1S,2R)-3-[(Benzo[1,3]dioxole-5-sulfonyl)-(4-cyano-2,2-dimethyl-butyl)-amino]-1-benzyl-2-hydroxy-propyl}-carbamic acid (3R, 3aS, 6aR)hexahydro-furo[2,3-b]furan-3-yl ester] the same measures were ≥ 7.00 and > 9.00.
The like results for `CNc1cccc(S(=O)(=O)N(C[C@@H](O)[C@H](Cc2ccccc2)NC(=O)O[C@H]2CO[C@H]3OCC[C@H]32)CC(C)(C)CCCCNC(=O)N(C)C)c1` [Compound 247, (3R,3aS,6aR)hexahydrofuro[2,3-b]furan-3-yl N-[(1S,2R)-1-benzyl-3-((6-[(dimethylamino)carbonyl]amino-2,2-dimethylhexyl)[3-(methylamino)phenyl]sulfonylamino)-2-hydroxypropyl]carbamate] were, in that order, ≥ 7.00 and > 9.00.
Regarding `CCC(CC)(CCC#N)CN(C[C@@H](O)[C@H](Cc1ccccc1)NC(=O)O[C@H]1CCOC1)S(=O)(=O)c1ccc(OC)cc1` [Compound 17, (3S)-Tetrahydro-3-furanyl N-((1S,2R)-1-benzyl-3-(4-cyano-2,2-diethylbutyl)[(4-methoxyphenyl)sulfonyl]amino-2-hydroxypropyl)carbamate], the pIC50 in the assay with HIV-1 (strain IIIB) was 6.30 to 7.00. The pKi on HIV-1 protease (setting [2]) is > 9.00.
`CC(C)(CCC#N)CN(C[C@@H](O)[C@H](Cc1ccccc1)NC(=O)OC1COCOC1)C(=O)OCc1ccccc1` [Compound 28, (4-Cyano-2,2-dimethyl-butyl)-[(2R,3S)-3-([1,3]dioxan-5-yloxycarbonylamino)-2-hydroxy-4-phenyl-butyl]-carbamic acid benzyl ester]: the pIC50 in the assay on HIV-1 (strain IIIB) (setting [1]) was 6.30 to 7.00. Besides, the pKi at HIV-1 protease (setting [2]) is > 9.00.
On to `COC(=O)NCCCC(C)(C)CN(C[C@@H](O)[C@H](Cc1ccccc1)NC(=O)O[C@H]1CO[C@H]2OCC[C@H]21)S(=O)(=O)c1ccc2c(c1)OCO2` [Compound 263, (3R,3aS,6aR)hexahydrofuro[2,3-b]furan-3-yl N-[(1S,2R)-3-((1,3-benzodioxol-5-ylsulfonyl)5-[(methoxycarbonyl)amino]-2,2-dimethylpentylamino)-1-benzyl-2-hydroxypropyl]carbamate], for which the pIC50 in the assay with HIV-1 (strain IIIB) (setting [1]) was ≥ 7.00. In addition, at HIV-1 protease (setting [2]), the pKi is > 9.00.
Consider `COc1ccc(S(=O)(=O)N(C[C@@H](O)[C@H](Cc2ccccc2)NC(=O)O[C@H]2CCOC2)CC(C)(C)CCCC#N)cc1` [Compound 18, (3S)-Tetrahydro-3-furanyl N-((1S,2R)-1-benzyl-3-(5-cyano-2,2-dimethylpentyl)[(4-methoxyphenyl)sulfonyl]amino-2-hydroxypropyl)carbamate], for which, in the assay on HIV-1 (strain IIIB) (setting [1]), the pIC50 is 6.30 to 7.00. In addition, on HIV-1 protease (setting [2]), the negative-log Ki (pKi) was > 9.00.
The like results for `CC(=O)Nc1ccc(S(=O)(=O)N(C[C@@H](O)[C@H](Cc2ccccc2)NC(=O)O[C@H]2CO[C@H]3OCC[C@H]32)CC(C)(C)CCC#N)cc1` [Compound 29, {(1S,2R)-3-[(4-Acetylamino-benzenesulfonyl)-(4-cyano-2,2-dimethyl-butyl)-amino]-1-benzyl-2-hydroxy-propyl}-carbamic acid (3R,3aS,6aR)hexahydro-furo[2,3-b]furan-3-yl ester] were, in that order, 6.30 to 7.00 and > 9.00.
Turning to `COc1ccc(S(=O)(=O)N(CC(O)C(Cc2ccccc2)NC(=O)OC2COC3OCCC23)CC(C)(C)CCC#N)cc1` [Compound 11, (3S,3aR,6aS)-Hexahydrofuro[2,3-b]furan-3-yl N-((1S,2R)-1-benzyl-3-(4-cyano-2,2-dimethylbutyl)[(4-methoxyphenyl)sulfonyl]amino-2-hydroxypropyl)carbamate], in the assay with HIV-1 (strain IIIB) (setting [1]), the pIC50 was ≥ 7.00. Further, the negative-log Ki (pKi) on HIV-1 protease (setting [2]) is > 9.00.
In the case of `COc1ccc(S(=O)(=O)N(CC(O)C(Cc2ccccc2)NC(=O)OC2COC3OCCC23)CC(C)(C)CCNC(=O)OC(C)C)cc1` [Compound 242, (3R,3aS,6aR)hexahydrofuro[2,3-b]furan-3-yl N-((1S,2R)-1-benzyl-2-hydroxy-3-4-[(isopropoxycarbonyl)amino]-2,2-dimethylbutyl[(4-methoxyphenyl)sulfonyl]aminopropyl)carbamate and (3S,3aR,6aS)hexahydrofuro[2,3-b]furan-3-yl N-((1S,2R)-1-benzyl-2-hydroxy-3-4-[(isopropoxycarbonyl)amino]-2,2-dimethylbutyl[(4-methoxyphenyl)sulfonyl]aminopropyl)carbamate], the pIC50 in the assay with HIV-1 (strain IIIB) (setting [1]) was ≥ 7.00. Further, on HIV-1 protease, the pKi is > 9.00.

As a reminder, the pIC50 is −log10 of the IC50, conventionally taken in molar units. Broadly, the pKi is the Ki on a negative log10 scale, so that one unit is a factor of ten.
